In ChEMBL document CHEMBL3046657, “Quantum chemical QSAR study of flavones and their radical-scavenging activity” (Med Chem Res, 2007):

tested on: Radical scavenging activity; assay: Antioxidant activity assessed as inhibition of DPPH radical […] at 33 uM after 5 min by spectrophotometric analysis; assay type: functional

Row | Structure (SMILES) | inhibition [%]
1 | O=c1cc(-c2ccccc2)oc2cc(O)ccc12 | 2.8
2 | O=c1c(O)c(-c2cc(O)c(O)c(O)c2)oc2cc(O)ccc12 | 82.3
3 | O=c1c(O)c(-c2ccc(O)c(O)c2)oc2cc(O)cc(O)c12 | 89.8
4 | O=c1c(O)c(-c2ccccc2)oc2cc(O)cc(O)c12 | 91.8
5 | O=C1c2c(O)cc(O)cc2O[C@H](c2ccc(O)c(O)c2)[C@H]1O | 94.8
6 | O=c1cc(-c2ccccc2)oc2cc(O)cc(O)c12 | 1.1
7 | O=C1CC(c2ccccc2)Oc2ccccc21 (stereo not given) | 2.6
8 | COc1cc(-c2oc3cc(O)cc(O)c3c(=O)c2O)cc(O)c1O | 84.6
9 | O=c1c(O)c(-c2ccc(O)cc2)oc2cc(O)cc(O)c12 | 93.5
10 | COc1ccc([C@@H]2CC(=O)c3c(O)cc(O)cc3O2)cc1O | 30
11 | O=c1cc(-c2ccccc2)oc2ccccc12 | 1.5
12 | O=c1cc(-c2ccccc2)oc2cccc(O)c12 | 0.6
13 | O=c1c(O)c(-c2ccc(O)cc2O)oc2cc(O)cc(O)c12 | 96.5
14 | COc1cccc2c(=O)cc(-c3ccccc3)oc12 | 0.7
15 | O=c1c(O)c(-c2ccccc2)oc2ccccc12 | 66
16 | O=c1c(O)c(-c2ccc(O)c(O)c2)oc2cc(O)ccc12 | 79
17 | O=C1c2ccc(O)cc2O[C@H](c2ccc(O)c(O)c2)[C@H]1O | 91.9
18 | O=C1C[C@@H](c2ccc(O)cc2)Oc2cc(O)cc(O)c21 | 6.3
19 | O=c1cc(-c2ccc(O)cc2)oc2cc(O)cc(O)c12 | 0.7
20 | O=c1c(O)c(-c2cc(O)c(O)c(O)c2)oc2cc(O)cc(O)c12 | 72.8
